Literature values as cited in patent US20140329776A1, “Mitochondria-Targeted Antioxidants for Treatment of Age-Related Brain Disorders” (MITOTECH S.A., priority 2011, published 2014).

Tested on: Wistar rats
Details: open field test; cited from earlier work

## CC1=C(C)C(=O)C(CCCCCCCCCC[P+](c2ccccc2)(c2ccccc2)c2ccccc2)=CC1=O [SkQ1, plastoquinonyl decyltriphenyl-phosphonium]
  difference in number of squares crossed between 14-month-old and 3-month-old rats: abolished
